Patent US20150306154A1, “STRAINS AND METHODS USEFUL FOR MYCOTOXINS” (DuPont Nutrition Biosciences ApS, priority 2011, published 2015)
Read-outs that look alike come from different tables or passages of the source.

Tests used:
nursery pigs = conditions: 3 ppm DON in diet, 7 days
IPEC-J2 cells = format: cell-based, porcine; conditions: relative to unstimulated IPEC-J2 cells

Molecule	ADFI (nursery pigs; Non-Responders) [kg]	ADG (nursery pigs; Non-Responders) [kg]	G:F (nursery pigs; Non-Responders)	ADFI (nursery pigs; Responders) [kg]	ADG (nursery pigs; Responders) [kg]	G:F (nursery pigs; Responders)	IL-6 gene expression fold change (IPEC-J2 cells; DON 10 ng/mL) [fold]	IL-8 gene expression fold change (IPEC-J2 cells; DON 10 ng/mL) [fold]	TNF-α gene expression fold change (IPEC-J2 cells; LPS/DON)	IL-6 gene expression fold change (IPEC-J2 cells; LPS 10 ng/mL) [fold]	IL-8 gene expression fold change (IPEC-J2 cells; LPS 10 ng/mL) [fold]	TNF-α gene expression fold change (IPEC-J2 cells; LPS 10 ng/mL) [fold]
CC1=C[C@H]2O[C@@H]3[C@H](O)C[C@](C)([C@@]2(CO)[C@H](O)C1=O)[C@]31CO1 [DON, deoxynivalenol]	0.71	0.46	0.64	0.42	0.26	0.61	−0.86	0.56	about 5 fold	–	–	–
lipopolysaccharide [LPS]	–	–	–	–	–	–	–	–	–	0.29	0.88	0.16
